Laboratory results from the OPERA property sets (Mansouri et al. 2018).

Compound | logP
CCCCC(CC)COP(=O)(Oc1ccccc1)Oc1ccccc1 (stereo unspecified) | 5.73
Cc1cc(C#N)ccn1 | 0.81
O=C(O)c1ccc2cccccc1-2 | 2.88
CCCCCCCCCC(=O)OC | 4.41
CNn1cc(C(=O)O)c(=O)c2cc(F)c(N3CCN(C)CC3)cc21 | 0.23
CCCCNCc1cccnc1 | 1.34
FC1(F)C(F)(F)C(F)(F)C(F)(F)C(F)(F)C1(F)F | 2.91
CCCCCCCCCC1(c2ccncc2)CCC(=O)NC1=O (stereo unspecified) | 4.64
COC(=O)C(C)(C)C | 1.83
O=[N+]([O-])c1ccc2cccccc1-2 | 2.59
Clc1nnnn1-c1ccccc1 | 1.48
CCOC(=O)C(=Cc1ccccc1F)C(=O)OCC | 3.04
NCCCC[C@H](N)C(=O)O | -3.05
Nc1ncnc2c1ncn2C1CC(O)C(CO)O1 (stereo unspecified) | -0.55
CN1C(=O)CN=C(c2ccccc2)c2cc(C#N)ccc21 | 1.8
O=C1NC(=O)C(c2ccccc2)(c2ccc(O)cc2)N1 (stereo unspecified) | 1.7
CCC(C)c1ccc(OCC(=O)O)cc1 (stereo unspecified) | 3.12
O=C(C(=O)c1ccco1)c1ccco1 | 1.24
Brc1nc(Br)c(Br)[nH]1 | 1.96
Cc1ccc(C)c2ccccc12 | 4.37
CNC(=O)Oc1ccc(SC)cc1 | 1.92
CCOP(=S)(OCC)Oc1ccc(Cl)cc1Cl | 5.14
CCc1ccncc1 | 1.65
Cc1ccc(S(N)(=O)=O)cc1 | 0.82

Compound | logP
S=P(N1CC1)(N1CC1)N1CC1 | 0.53
Nc1ccc(Cl)c([N+](=O)[O-])c1 | 2.06
O=C(O)CCn1nnc2ccccc21 | -0.63
O=[N+]([O-])c1ncn(CC(O)CN2CC2)n1 (stereo unspecified) | -0.72
C1=COCCC1 | 0.69
Cc1cccc(S(N)(=O)=O)c1 | 0.85
CN(C)C(=O)Nc1cccc(N)c1 | -0.1
CCC(C)c1cc([N+](=O)[O-])cc(C(C)CC)c1O (stereo unspecified) | 4.8
c1nc[nH]n1 | -0.58
ClC1=C(Cl)C(Cl)(Cl)C(Cl)=C1Cl | 5.04
CCCC(C)(COC(N)=O)COC(N)=O | 0.7
O=C(NC(CO)C(O)c1ccc([N+](=O)[O-])cc1)C(F)F (stereo unspecified) | 0.42
CC(=O)OCC(=O)[C@@]1(O)CC[C@H]2[C@@H]3CCC4=CC(=O)CC[C@]4(C)[C@H]3C(=O)C[C@@]21C | 2.1
CNC(=O)Oc1ccccc1[N+](=O)[O-] | 1.02
O=C(O)CN1CCCCC1 | -1.05
CC(O)C(F)(F)F (stereo unspecified) | 0.71
Nc1cc([N+](=O)[O-])cc([N+](=O)[O-])c1 | 1.89
CCN(CC)C(=O)c1ccccc1 | 1.25
CCCC(=NOCC)C1C(=O)CC2(CCC(C)C2)OC1=O (stereo unspecified) | 3.66
COC1CC(OC2CCC3(C)C(CCC4C3CC(O)C3(C)C(C5=CC(=O)OC5)CCC43O)C2)OC(C)C1OC1CC(O)C(OC2CC(O)C(OC)C(C)O2)C(C)O1 (stereo unspecified) | 2.14
O=C(Nc1ccccc1)NC1CCCCC1 | 2.77
CC(=O)C=Cc1ccco1 | 1.35
CCCCN | 0.97
CS(=O)(=O)c1cccc(-c2nc(N)nc(N)n2)c1 | 0.29

Compound | logP
Cc1ccc(O)c(O)c1 | 1.37
Cc1n[nH]c(C(N)=O)c1[N+](=O)[O-] | -0.38
O=[N+]([O-])c1cccc2cc[nH]c12 | 2.63
Nc1ccc(C(=O)O)c(Br)c1 | 1.49
COc1ccc(C(C)c2ccc(OC)cc2)cc1 | 4.52
Nc1ccc2ncccc2c1 | 1.28
COc1ccc(NC(=O)NC(=N)N)cc1 | 0.56
C[C@]12CC[C@H]3[C@@H](CCC4=CC(=O)CC[C@@H]43)[C@@H]1CC[C@@H]2O | 2.62
CCCc1cccc(OCC(=O)O)c1 | 2.71
CC(C)[C@@H](N)Cc1ccccc1 | 2.59
Cc1ncc([N+](=O)[O-])n1CCNC(=O)OCc1ccccc1 | 1.69
COc1cc2c(cc1OC)[C@@]13CCN4CC5=CCO[C@H]6CC(=O)N2[C@H]1[C@H]6[C@H]5C[C@H]43 | 0.98
CCCC1CCCc2ncc(C(=O)OC)c(=O)n21 (stereo unspecified) | 1.14
O=C(O)c1ccccc1[N+](=O)[O-] | 1.46
N#CC(Cl)(Cl)Cl | 2.09
O=[N+]([O-])c1ccc2cccnc2c1 | 1.82
CCCCCCc1ccc(O)cc1O | 3.45
O=S(=O)(Nc1ccc(Cl)cc1)C(F)F | 2.84
Cc1ccc(C)n1N(C)c1ccc(N2CCOCC2)nn1 | 2.21
CNC(=O)Oc1ccc(C(C)C)cc1 | 2.57
CCOC(C)OCC | 0.84
Nc1cccc(N)c1 | -0.33
CN(C)C=C[N+](=O)[O-] | -0.8
c1cc2nc[nH]c2cn1 | 0.18

Compound | logP
COc1cc(CC(C)N)c(OC)cc1C (stereo unspecified) | 2.24
CCCC1(CC)C(=O)NC(=O)NC1=O | 0.66
COc1cc2c(c3c1c(=O)c1ccccc1n3C)C=CC(C)(C)O2 | 3.67
O=S(=O)(CCl)c1ccccc1 | 1.24
CC(=O)Nc1cccc(C)c1 | 1.68
COc1ccc(C=O)cc1C | 2.23
CC(=O)Nc1ccc(C(=O)O)cc1 | 1.31
COc1c(C)ncc(CO)c1CO | -0.1
COc1cccc([N+](=O)[O-])c1 | 2.16
c1ccc(C23CC4CC(CC(C4)C2)C3)cc1 | 5.55
CCc1nnc(N)o1 | -0.3
O=[N+]([O-])c1ccc(CCO)cc1 | 1.12
CC(Oc1ccc(Cl)cc1)C(=O)O (stereo unspecified) | 2.31
O=C(O)COc1ccccc1Cl | 1.86
CCCCc1ccc(C(=O)O)cc1 | 3.97
NC(=S)c1ccccc1N | 0.99
O=P(Oc1ccccc1)(Oc1ccccc1)Oc1ccccc1 | 4.59
Cc1ccnc2ccccc12 | 2.61
CCC1(C2=CC3CCC(C2)C3)C(=O)NC(=O)NC1=O (stereo unspecified) | 2.53
OCCO | -1.36
Clc1cc(Cl)cc(Cl)c1 | 4.19
Oc1ccc2cccc(O)c2c1 | 1.94
COc1cc(S(C)=O)ccc1-c1nc2ccncc2[nH]1 (stereo unspecified) | 1.25
NS(=O)(=O)c1ccc(O)cc1 | 0.06

Compound | logP
O=C(NP(=O)(N1CC1)N1CC1)c1cccc(I)c1 | 1.91
CCCC1(c2ccncc2)CCC(=O)NC1=O (stereo unspecified) | 1.13
COc1ccc(C(C#N)C(C)C)cc1 (stereo unspecified) | 2.68
Nc1nc(N)nc(-c2ccc([N+](=O)[O-])cc2)n1 | 1.6
CCCCCCC1(CC)C(=O)NC(=O)NC1=O | 2.46
CCCNc1nc(NC)nc(SC(F)F)n1 | 3.28
C=CNP(=O)(NC=C)NC(=O)c1cccc(OC)c1 | 0.86
O=C(O)C1c2ccccc2-c2ccccc21 | 2.8
O=C1CC(Sc2ccccn2)N1 (stereo unspecified) | 0.61
CC1(C)OC(=O)c2ccccc21 | 1.73
CC(=O)C(=Cc1ccccc1)C(C)=O | 1.59
COc1cc(C(=O)O)cc(OC)c1O | 1.04
NS(=O)(=O)c1cccc(Cl)c1 | 1.29
Cn1c(=O)n(C)c2ccccc21 | 1.46
Cc1cc2ccccc2cc1C | 4.4
CSCS(=O)CC(CO)NC(=O)C=Cc1c(C)[nH]c(=O)[nH]c1=O (stereo unspecified) | -1.71
O=[N+]([O-])c1ccnc2ccccc12 | 2.06
COP(=S)(OC)SCSc1ccc(Cl)cc1 | 4.82
COCCOCC1COC(c2ccc(Cl)cc2Cl)(n2cncn2)O1 (stereo unspecified) | 2.03
CCCCCCCCOC(=O)c1cc(O)c(O)c(O)c1 | 3.66
